Test results from PubChem BioAssay AID248 (DTP/NCI, 2004).
“And” between values parts separate entries of the source, which are not always exact repeats. Equal entries are not always repeated. Toxic doses and inconclusive results are not listed. Rule as the data show it: active = T/C of 150% or more; inactive = T/C below 125%.

System: L1210 leukemia ip in BDF1 mice, survival T/C
Assay: NCI In Vivo Anticancer Drug Screen. Data for tumor model L1210 Leukemia (intraperitoneal) in B6D2F1 (BDF1) mice
Settings: endpoint: mean survival time, higher = longer survival
How it was run: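 Antitumor effect is assessed in tumor-bearing animals. Survival in the compound arm is compared with a vehicle-dosed control arm and expressed as their quotient.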

[1] = dose: 100.0 mg/kg/injection, schedule: Q04DX002 (ip), vehicle: saline with Tween-80
[2] = dose: 200.0 mg/kg/injection, schedule: Q04DX002 (ip), vehicle: saline with Tween-80
[3] = dose: 400.0 mg/kg/injection, schedule: Q04DX002 (ip), vehicle: saline with Tween-80
[4] = dose: 100.0 mg/kg/injection, schedule: Q01DX001 (ip), vehicle: carboxymethylcellulose (CMC)
[5] = dose: 200.0 mg/kg/injection, schedule: Q01DX001 (ip), vehicle: carboxymethylcellulose (CMC)
[6] = dose: 400.0 mg/kg/injection, schedule: Q01DX001 (ip), vehicle: carboxymethylcellulose (CMC)
[7] = dose: 50.0 mg/kg/injection, schedule: Q01DX009 (ip), vehicle: Klucel (hydroxypropylcellulose) (HPC)
[8] = dose: 100.0 mg/kg/injection, schedule: Q01DX009 (ip), vehicle: Klucel (hydroxypropylcellulose) (HPC)
[9] = dose: 200.0 mg/kg/injection, schedule: Q01DX009 (ip), vehicle: Klucel (hydroxypropylcellulose) (HPC)
[10] = dose: 400.0 mg/kg/injection, schedule: Q01DX009 (ip), vehicle: Klucel (hydroxypropylcellulose) (HPC)
[11] = dose: 6.25 mg/kg/injection, schedule: Q01DX009 (ip), vehicle: saline
[12] = dose: 12.5 mg/kg/injection, schedule: Q01DX009 (ip), vehicle: saline
[13] = dose: 12.5 mg/kg/injection, schedule: Q04DX003 (ip), vehicle: saline
[14] = dose: 25.0 mg/kg/injection, schedule: Q04DX003 (ip), vehicle: saline
[15] = dose: 50.0 mg/kg/injection, schedule: Q04DX003 (ip), vehicle: saline
[16] = dose: 100.0 mg/kg/injection, schedule: Q01DX001 (ip), vehicle: other
[17] = dose: 200.0 mg/kg/injection, schedule: Q01DX001 (ip), vehicle: other
[18] = dose: 100.0 mg/kg/injection, schedule: Q04DX002 (ip), vehicle: Klucel (hydroxypropylcellulose) (HPC)
[19] = dose: 200.0 mg/kg/injection, schedule: Q04DX002 (ip), vehicle: Klucel (hydroxypropylcellulose) (HPC)
[20] = dose: 400.0 mg/kg/injection, schedule: Q04DX002 (ip), vehicle: Klucel (hydroxypropylcellulose) (HPC)
[21] = dose: 5.0 mg/kg/injection, schedule: Q01DX001 (ip), vehicle: other
[22] = dose: 10.0 mg/kg/injection, schedule: Q01DX001 (ip), vehicle: other

Measured: T/C

COC(=O)NNc1ccccc1C(=O)OC
inactive: [1] 88 % of control | [2] 88 % of control | [3] 98 % of control

COc1ccc(C=Nc2cccc(O)c2)cc1
inactive: [4] 95 % of control | [5] 95 % of control | [6] 92 % of control

CC(C)=CCCC(=O)NC(=O)NS(=O)(=O)c1ccc(Cl)cc1
inactive: [7] 109 % of control | [8] 100 % of control | [9] 96 % of control

C[P+](Cc1ccc([N+](=O)[O-])cc1)(c1ccccc1)c1ccccc1
inactive: dose: 12.5 mg/kg/injection, schedule: Q01DX009 (ip), vehicle: Klucel (hydroxypropylcellulose) (HPC) 99 % of control | dose: 12.5 mg/kg/injection, schedule: Q04DX003 (ip), vehicle: Klucel (hydroxypropylcellulose) (HPC) 100 % of control | dose: 25.0 mg/kg/injection, schedule: Q01DX009 (ip), vehicle: Klucel (hydroxypropylcellulose) (HPC) 90 % of control | dose: 25.0 mg/kg/injection, schedule: Q04DX003 (ip), vehicle: Klucel (hydroxypropylcellulose) (HPC) 86 % of control | dose: 50.0 mg/kg/injection, schedule: Q04DX003 (ip), vehicle: Klucel (hydroxypropylcellulose) (HPC) 96 % of control

COc1ccc(Br)cc1C1(O)C2C=CC1CC2 (stereo not given)
inactive: [8] 102 % of control | [9] 102 % of control | [10] 98 % of control

CC(C)=CCC(OC(=O)C=C(C)C)C1=CC(=O)c2c(O)ccc(O)c2C1=O (stereo not given)
inactive: [11] 93 % of control | dose: 6.25 mg/kg/injection, schedule: Q04DX003 (ip), vehicle: saline 98 % of control | [12] 92 % of control | [13] 101 % of control | [14] 104 % of control

S=C(N/N=C\c1ccc(Cl)cc1Cl)Nc1ccc2cn[nH]c2c1
inactive: dose: 50.0 mg/kg/injection, schedule: Q01DX001 (ip), vehicle: carboxymethylcellulose (CMC) 102 % of control | [4] 98 % of control | [5] 86 % of control | [6] 91 % of control

COc1ccc(OC)c(N(CCN2C(=O)c3ccccc3C2=O)C(=O)C2CCC(=O)C2C)c1 (stereo not given)
inactive: [1] 100 % of control | [2] 103 % of control | [3] 97 % of control

CNCCCC1c2ccccc2C=Cc2ccccc21
inactive: dose: 3.12 mg/kg/injection, schedule: Q01DX009 (ip), vehicle: saline 100 % of control | [11] 96 % of control | [12] 101 % of control | dose: 25.0 mg/kg/injection, schedule: Q01DX009 (ip), vehicle: saline 100 % of control | [14] 90 % of control | [15] 101 % of control

C[N+](C)(C)CCCC1C2CCC(C2)C1C#N (stereo not given)
inactive: dose: 3.13 mg/kg/injection, schedule: Q01DX009 (ip), vehicle: saline 101 % of control | [11] 97 % of control | [12] 98 % of control and 101 % of control | [13] 102 % of control | [14] 98 % of control | [15] 96 % of control

CCC(CC)NC(CC)COC(=O)c1ccc(N)cc1 (stereo not given)
inactive: dose: 75.0 mg/kg/injection, schedule: Q01DX001 (ip), vehicle: other 97 % of control | dose: 150.0 mg/kg/injection, schedule: Q01DX001 (ip), vehicle: other 107 % of control

Nc1cccc(-c2ccccc2)c1
inactive: dose: 100.0 mg/kg/injection, schedule: Q01DX001 (ip), vehicle: Klucel (hydroxypropylcellulose) (HPC) 92 % of control | dose: 200.0 mg/kg/injection, schedule: Q01DX001 (ip), vehicle: Klucel (hydroxypropylcellulose) (HPC) 90 % of control

CCOP(=O)(Cc1ccc(N=Cc2cnc3nc(NC(C)=O)[nH]c(=O)c3n2)cc1)OCC
inactive: [16] 98 % of control | [17] 105 % of control | dose: 400.0 mg/kg/injection, schedule: Q01DX001 (ip), vehicle: other 96 % of control

O=C(O)c1c(Br)c(Br)c(Br)c(Br)c1C(=O)Nc1ccc(Cl)c(Cl)c1
inactive: [8] 95 % of control | [9] 98 % of control | [10] 120 % of control

O=C1c2ccccc2C(=O)N1CCOCCOCCOCCN1C(=O)c2ccccc2C1=O
inactive: dose: 50.0 mg/kg/injection, schedule: Q01DX009 (ip), vehicle: saline with Tween-80 97 % of control | dose: 100.0 mg/kg/injection, schedule: Q01DX009 (ip), vehicle: saline with Tween-80 91 % of control | [18] 102 % of control | dose: 200.0 mg/kg/injection, schedule: Q01DX009 (ip), vehicle: saline with Tween-80 94 % of control | [19] 94 % of control | [20] 102 % of control

CCC(C(=O)O)(c1ccccc1)c1ccccc1
inactive: dose: 100.0 mg/kg/injection, schedule: Q04DX002 (ip), vehicle: gum acacia 93 % of control | dose: 200.0 mg/kg/injection, schedule: Q04DX002 (ip), vehicle: gum acacia 111 % of control | dose: 400.0 mg/kg/injection, schedule: Q04DX002 (ip), vehicle: gum acacia 86 % of control

c1ccc(CSc2ncnc3nncnc23)cc1
inactive: [21] 104 % of control | [22] 95 % of control | dose: 20.0 mg/kg/injection, schedule: Q01DX001 (ip), vehicle: other 110 % of control | dose: 40.0 mg/kg/injection, schedule: Q01DX001 (ip), vehicle: other 101 % of control | dose: 80.0 mg/kg/injection, schedule: Q01DX001 (ip), vehicle: other 98 % of control | [16] 89 % of control | [17] 101 % of control

c1cc[c]([Sn]([c]2ccccc2)([c]2ccccc2)[n]2cnc3cncnc32)cc1
inactive: [21] 111 % of control | [22] 100 % of control

CC(C)(O)/C=C/C(=O)[C@](C)(O)[C@H]1[C@H](O)C[C@@]2(C)[C@@H]3CC=C4[C@@H](C[C@H](O)C(=O)C4(C)C)[C@]3(C)C(=O)C[C@]12C
inactive: dose: 0.5 mg/kg/injection, schedule: Q01DX001 (sc), vehicle: steriod suspending solution 102 % of control | dose: 1.0 mg/kg/injection, schedule: Q01DX001 (sc), vehicle: steriod suspending solution 98 % of control

N#CCCP(=S)(CCC#N)CCC#N
inactive: [18] 94 % of control | [19] 112 % of control | [20] 105 % of control

Cc1c(Cl)cccc1N=Cc1ccccc1O
inactive: [7] 96 % of control | [8] 108 % of control | dose: 100.0 mg/kg/injection, schedule: Q04DX003 (ip), vehicle: Klucel (hydroxypropylcellulose) (HPC) 109 % of control | [9] 110 % of control | dose: 200.0 mg/kg/injection, schedule: Q04DX003 (ip), vehicle: Klucel (hydroxypropylcellulose) (HPC) 107 % of control | dose: 400.0 mg/kg/injection, schedule: Q04DX003 (ip), vehicle: Klucel (hydroxypropylcellulose) (HPC) 98 % of control
